Reference: PMC12736120, “First-in-Human Phase I Clinical Trial of SLC-391, a Novel and Selective AXL Inhibitor, in Patients with Advanced Solid Tumours” (Pharmaceuticals, 2025)

Assay: Phase I safety and tolerability (DLTs, adverse events, laboratory, ECG)
Type: in vivo
Description: This study employed a standard 3 + 3 dose escalation design with a starting dose of 25 mg QD. […] Dose escalation decisions took into account all available data from evaluable subjects as well as PK and the safety profile of prior dose cohorts. […] There was a minimum 5-day stagger between dosing of the first and second subjects in each dose cohort. Dose escalation decisions were made by a data review committee (DRC) composed of, at minimum, the medical monitor, at least one principal investigator, and a sponsor representative, per the study DRC Plan. Dose escalation could continue until 2 or more subjects in the same dose cohort experienced a dose-limiting toxicity (DLT). DLTs were defined as Grade 3 or 4 adverse drug reactions (ADRs), with grades as defined in the National Cancer Institute Common Toxicity Criteria for Adverse Events (NCI-CTCAE) version 5.0. […] The MTD was defined as the highest dose at which no more than 1 of 6 subjects experienced a DLT during cycle 1 of the study drug. The MTD would have been exceeded if 2 or more subjects in a dose cohort of up to 6 subjects experienced a DLT. Subjects could continue treatment until disease progression, unacceptable toxicity, death, withdrawal of consent, or loss to follow-up.
Before enrolment in the study, all patients received a detailed medical history and physical examination. Clinical laboratory evaluations included clinical chemistry, complete blood count, urinalysis, coagulation factors, and a lipid panel. Other safety assessments included vital signs, physical examination, electrocardiogram, and echocardiogram with multigated acquisition (ECHO/MUGA). Safety assessments were performed on days 1, 8, 15, and 21 of cycle 1, and on day 1 of cycles 2 to 6.

[1] = Grade 3, Overall Study (N = 35)
[2] = Grade All, Overall BID (N = 15)
[3] = Grade All, Overall Study (N = 35)

Nc1ncc(-c2cnn(C3CCNCC3)c2)cc1-c1nnc(CC2CC2)o1 [SLC-391, 3-(5-[cyclopropylmethyl]-1,3,4-oxadiazol-2-yl)-5-(1-[piperidin-4-yl]-1H-pyrazol-4-yl)-pyridin-2-amine]
TEAE: Metabolism and nutrition disorders (Grade 3, Overall BID (N = 15)): 0 n (%) | TEAE: Musculoskeletal and connective tissue disorders (Grade 3, Overall BID (N = 15)): 1 (6.7) n (%) | TEAE: Nausea (Grade 3, Overall BID (N = 15)): 0 n (%) | TEAE: Renal and urinary disorders (Grade 3, Overall BID (N = 15)): 1 (6.7) n (%) | TEAE: Respiratory, thoracic, and mediastinal disorders (Grade 3, Overall BID (N = 15)): 0 n (%) | TEAE: Skin and subcutaneous tissue disorders (Grade 3, Overall BID (N = 15)): 1 (6.7) n (%) | TEAE: Vascular disorders (Grade 3, Overall BID (N = 15)): 1 (6.7) n (%) | TEAE: Vomiting (Grade 3, Overall BID (N = 15)): 0 n (%) | Any treatment-emergent adverse event (TEAE) (Grade 3, Overall QD (N = 20)): 6 (30.0) n (%) | TEAE: Blood and lymphatic system disorders (Grade 3, Overall QD (N = 20)): 1 (5.0) n (%) | TEAE: Diarrhoea (Grade 3, Overall QD (N = 20)): 0 n (%) | TEAE: Dyspnoea (Grade 3, Overall QD (N = 20)): 1 (5.0) n (%) | TEAE: Fatigue (Grade 3, Overall QD (N = 20)): 0 n (%) | TEAE: Gastrointestinal disorders (Grade 3, Overall QD (N = 20)): 3 (15.0) n (%) | TEAE: General disorders and administration site conditions (Grade 3, Overall QD (N = 20)): 0 n (%) | TEAE: Infections and infestations (Grade 3, Overall QD (N = 20)): 1 (5.0) n (%) | TEAE: Metabolism and nutrition disorders (Grade 3, Overall QD (N = 20)): 2 (10.0) n (%) | TEAE: Musculoskeletal and connective tissue disorders (Grade 3, Overall QD (N = 20)): 1 (5.0) n (%) | TEAE: Nausea (Grade 3, Overall QD (N = 20)): 1 (5.0) n (%) | TEAE: Renal and urinary disorders (Grade 3, Overall QD (N = 20)): 0 n (%) | TEAE: Respiratory, thoracic, and mediastinal disorders (Grade 3, Overall QD (N = 20)): 2 (10.0) n (%) | TEAE: Skin and subcutaneous tissue disorders (Grade 3, Overall QD (N = 20)): 0 n (%) | TEAE: Vascular disorders (Grade 3, Overall QD (N = 20)): 1 (5.0) n (%) | TEAE: Vomiting (Grade 3, Overall QD (N = 20)): 1 (5.0) n (%) | Any treatment-emergent adverse event (TEAE) [1]: 12 (34.3) n (%) | TEAE: Blood and lymphatic system disorders [1]: 2 (5.7) n (%) | TEAE: Diarrhoea [1]: 1 (2.9) n (%) | TEAE: Dyspnoea [1]: 1 (2.9) n (%) | TEAE: Fatigue [1]: 1 (2.9) n (%) | TEAE: Gastrointestinal disorders [1]: 4 (11.4) n (%) | TEAE: General disorders and administration site conditions [1]: 1 (2.9) n (%) | TEAE: Infections and infestations [1]: 2 (5.7) n (%) | TEAE: Metabolism and nutrition disorders [1]: 2 (5.7) n (%) | TEAE: Musculoskeletal and connective tissue disorders [1]: 2 (5.7) n (%) | TEAE: Nausea [1]: 1 (2.9) n (%) | TEAE: Renal and urinary disorders [1]: 1 (2.9) n (%) | TEAE: Respiratory, thoracic, and mediastinal disorders [1]: 2 (5.7) n (%) | TEAE: Skin and subcutaneous tissue disorders [1]: 1 (2.9) n (%) | TEAE: Vascular disorders [1]: 2 (5.7) n (%) | TEAE: Vomiting [1]: 1 (2.9) n (%) | Any treatment-emergent adverse event (TEAE) [2]: 15 (100.0) n (%) | TEAE: Abdominal distension [2]: 3 (20.0) n (%) | TEAE: Abdominal pain [2]: 0 n (%) | TEAE: Back pain [2]: 2 (13.3) n (%) | TEAE: Blood and lymphatic system disorders [2]: 2 (13.3) n (%) | TEAE: Chills [2]: 4 (26.7) n (%) | TEAE: Constipation [2]: 7 (46.7) n (%) | TEAE: Cough [2]: 3 (20.0) n (%) | TEAE: Decreased appetite [2]: 5 (33.3) n (%) | TEAE: Diarrhoea [2]: 9 (60.0) n (%) | TEAE: Dizziness [2]: 0 n (%) | TEAE: Dysgeusia [2]: 2 (13.3) n (%) | TEAE: Dyspnoea [2]: 5 (33.3) n (%) | TEAE: Fatigue [2]: 10 (66.7) n (%) | TEAE: Gastrointestinal disorders [2]: 13 (86.7) n (%) | TEAE: General disorders and administration site conditions [2]: 12 (80.0) n (%) | TEAE: Haematuria [2]: 4 (26.7) n (%) | TEAE: Headache [2]: 3 (20.0) n (%) | TEAE: Infections and infestations [2]: 7 (46.7) n (%) | TEAE: Investigations [2]: 3 (20.0) n (%) | TEAE: Metabolism and nutrition disorders [2]: 5 (33.3) n (%) | TEAE: Musculoskeletal and connective tissue disorders [2]: 6 (40.0) n (%) | TEAE: Nausea [2]: 11 (73.3) n (%) | TEAE: Nervous system disorders [2]: 5 (33.3) n (%) | TEAE: Oedema peripheral [2]: 2 (13.3) n (%) | TEAE: Psychiatric disorders [2]: 3 (20.0) n (%) | TEAE: Pyrexia [2]: 2 (13.3) n (%) | TEAE: Renal and urinary disorders [2]: 5 (33.3) n (%) | TEAE: Respiratory, thoracic, and mediastinal disorders [2]: 8 (53.3) n (%) | TEAE: Skin and subcutaneous tissue disorders [2]: 3 (20.0) n (%) | TEAE: Urinary tract infection [2]: 3 (20.0) n (%) | TEAE: Vascular disorders [2]: 2 (13.3) n (%) | TEAE: Vomiting [2]: 6 (40.0) n (%) | TEAE: Weight decreased [2]: 2 (13.3) n (%) | Any treatment-emergent adverse event (TEAE) (Grade All, Overall QD (N = 20)): 19 (95.0) n (%) | TEAE: Abdominal distension (Grade All, Overall QD (N = 20)): 3 (15.0) n (%) | TEAE: Abdominal pain (Grade All, Overall QD (N = 20)): 5 (25.0) n (%) | TEAE: Back pain (Grade All, Overall QD (N = 20)): 2 (10.0) n (%) | TEAE: Blood and lymphatic system disorders (Grade All, Overall QD (N = 20)): 2 (10.0) n (%) | TEAE: Chills (Grade All, Overall QD (N = 20)): 2 (10.0) n (%) | TEAE: Constipation (Grade All, Overall QD (N = 20)): 7 (35.0) n (%) | TEAE: Cough (Grade All, Overall QD (N = 20)): 4 (20.0) n (%) | TEAE: Decreased appetite (Grade All, Overall QD (N = 20)): 7 (35.0) n (%) | TEAE: Diarrhoea (Grade All, Overall QD (N = 20)): 11 (55.0) n (%) | TEAE: Dizziness (Grade All, Overall QD (N = 20)): 4 (20.0) n (%) | TEAE: Dysgeusia (Grade All, Overall QD (N = 20)): 2 (10.0) n (%) | TEAE: Dyspnoea (Grade All, Overall QD (N = 20)): 7 (35.0) n (%) | TEAE: Fatigue (Grade All, Overall QD (N = 20)): 12 (60.0) n (%) | TEAE: Gastrointestinal disorders (Grade All, Overall QD (N = 20)): 17 (85.0) n (%) | TEAE: General disorders and administration site conditions (Grade All, Overall QD (N = 20)): 15 (75.0) n (%) | TEAE: Haematuria (Grade All, Overall QD (N = 20)): 1 (5.0) n (%) | TEAE: Headache (Grade All, Overall QD (N = 20)): 2 (10.0) n (%) | TEAE: Infections and infestations (Grade All, Overall QD (N = 20)): 4 (20.0) n (%) | TEAE: Investigations (Grade All, Overall QD (N = 20)): 5 (25.0) n (%) | TEAE: Metabolism and nutrition disorders (Grade All, Overall QD (N = 20)): 9 (45.0) n (%) | TEAE: Musculoskeletal and connective tissue disorders (Grade All, Overall QD (N = 20)): 8 (40.0) n (%) | TEAE: Nausea (Grade All, Overall QD (N = 20)): 13 (65.0) n (%) | TEAE: Nervous system disorders (Grade All, Overall QD (N = 20)): 10 (50.0) n (%) | TEAE: Oedema peripheral (Grade All, Overall QD (N = 20)): 2 (10.0) n (%) | TEAE: Psychiatric disorders (Grade All, Overall QD (N = 20)): 2 (10.0) n (%) | TEAE: Pyrexia (Grade All, Overall QD (N = 20)): 3 (15.0) n (%) | TEAE: Renal and urinary disorders (Grade All, Overall QD (N = 20)): 1 (5.0) n (%) | TEAE: Respiratory, thoracic, and mediastinal disorders (Grade All, Overall QD (N = 20)): 11 (55.0) n (%) | TEAE: Skin and subcutaneous tissue disorders (Grade All, Overall QD (N = 20)): 7 (35.0) n (%) | TEAE: Urinary tract infection (Grade All, Overall QD (N = 20)): 1 (5.0) n (%) | TEAE: Vascular disorders (Grade All, Overall QD (N = 20)): 3 (15.0) n (%) | TEAE: Vomiting (Grade All, Overall QD (N = 20)): 11 (55.0) n (%) | TEAE: Weight decreased (Grade All, Overall QD (N = 20)): 4 (20.0) n (%) | Any treatment-emergent adverse event (TEAE) [3]: 34 (97.1) n (%) | TEAE: Abdominal distension [3]: 6 (17.1) n (%) | TEAE: Abdominal pain [3]: 5 (14.3) n (%) | TEAE: Back pain [3]: 4 (11.4) n (%) | TEAE: Blood and lymphatic system disorders [3]: 4 (11.4) n (%) | TEAE: Chills [3]: 6 (17.1) n (%) | TEAE: Constipation [3]: 14 (40.0) n (%) | TEAE: Cough [3]: 7 (20.0) n (%) | TEAE: Decreased appetite [3]: 12 (34.3) n (%) | TEAE: Diarrhoea [3]: 20 (57.1) n (%) | TEAE: Dizziness [3]: 4 (11.4) n (%) | TEAE: Dysgeusia [3]: 4 (11.4) n (%) | TEAE: Dyspnoea [3]: 12 (34.3) n (%) | TEAE: Fatigue [3]: 22 (62.9) n (%) | TEAE: Gastrointestinal disorders [3]: 30 (85.7) n (%) | TEAE: General disorders and administration site conditions [3]: 27 (77.1) n (%) | TEAE: Haematuria [3]: 5 (14.3) n (%) | TEAE: Headache [3]: 5 (14.3) n (%) | TEAE: Infections and infestations [3]: 11 (31.4) n (%) | TEAE: Investigations [3]: 8 (22.9) n (%) | TEAE: Metabolism and nutrition disorders [3]: 14 (40.0) n (%)
